Data reported in patent US20240027435A1, “METHOD AND KIT FOR LABELING EUKARYOTIC CELLS FROM A MULTICELLULAR ORGANISM USING MODIFIED MONOSACCHARIDE COMPOUNDS AND PHARMACEUTICAL COMPOSITION COMPRISING SUCH CELLS” (THERAONCO, priority 2020, published 2024).

Tests used:
Format in all cases: cell-based, Human
AGS = experiment: Labelling of cells, fluorescence cancer/non cancer ratio: AGS vs Stomach epitelial cell; settings: fluorescence signal ratio; AGS (Stomach, Gastric adenocarcinoma) vs Stomach epitelial cell; one doubling time (30 h)
Method: (§1) The cell lines were grown in suitable medium, supplemented by 10% fetal bovine serum (FBS) (VWR international S.A.S). The culture medium was changed every two days. The passaging of cells was performed using Tryp-LE express 1× (Gibco). The cell viability was estimated using trypan blue exclusion tests.
(§2) Cells were seeded in 24-well plates, at a density of 5×10^4 cells/well. Then, cells were incubated at 37° C., 5% CO2, during 24 hours. The culture media were adapted to the tested cells and supplemented by 10% fetal bovine serum (FBS). The incubation time corresponded to one doubling time of the tested cells. The fluorescence signal cancer/non cancer ratios were calculated based on fluorescence intensities obtained with Xylose-N3 or Ribose-N3 tested on cancer and corresponding non cancer cells.
(§3) The fluorescence assimilation of Xylose-N3 or Ribose-N3 probes was visualized by copper-free click chemistry using sulfo-DBCO-biotin (1 mM), followed by labeling with a mouse anti-biotin Alexa Fluor 488 antibody conjugate (0.62 mg/ml stock, Jackson ImmunoResearch, dilution 1/10). […]
(§4) The fluorescence acquisition was recorded using Olympus Microscopy IX83 (Olympus Life Science) equipped with a 60×/1.3 […]/1.4 SRI (silicone refractive index) objective, and Hamamatsu oreca flash 4 LT camera with 109 nm/pixel calibrated pixel size. […]

Kasumi-1 = experiment: Labelling of cells, fluorescence cancer/non cancer ratio: Kasumi-1 vs B12-F8; settings: fluorescence signal ratio; Kasumi-1 (Blood, Acute Myeloid Leukemia, 48 h) vs B12-F8 (24 h); one doubling time
Method: as §1, §2, §3, §4

A549 = experiment: Labelling of cells, fluorescence cancer/non cancer ratio: A549 vs Bronchial epithelial cell; settings: fluorescence signal ratio; A549 (Lung, Carcinoma) vs Bronchial epithelial cell; one doubling time (40 h)
Method: as §1, §2, §3, §4

MDA MB175 = experiment: Labelling of cells, fluorescence cancer/non cancer ratio: MDA MB175 vs HME-1; settings: fluorescence signal ratio; MDA MB175 (Breast cancer) vs HME-1; one doubling time (30 h)
Method: as §1, §2, §3, §4

THP1 = experiment: Labelling of cells with azido-monosaccharide probe, fluorescence cancer/non cancer ratio: THP1 vs Monocytes/Macrophages; settings: fluorescence signal ratio; THP1 (Blood, monocytic acute leukemia) vs Monocytes/Macrophages; incubation one doubling time (26 h)
Method: as §1, §2, §3, §4

MDA-MB-231 = experiment: Labelling of cells, fluorescence cancer/non cancer ratio: MDA-MB-231 vs Breast epithelial cell; settings: fluorescence signal ratio; MDA-MB-231 (Breast adenocarcinoma) vs Breast epithelial cell; one doubling time (40 h)
Method: as §1, §2, §3, §4

PANC = experiment: Labelling of cells, fluorescence cancer/non cancer ratio: PANC vs HPNE; settings: fluorescence signal ratio; PANC (Pancreas, Pancreatic carcinoma) vs HPNE; one doubling time (32 h)
Method: as §1, §2, §3, §4

KCL22 = experiment: Labelling of cells, fluorescence cancer/non cancer ratio: KCL22 vs Lymphocytes; settings: fluorescence signal ratio; KCL22 (Blood, chronic myelogenous leukemia) vs Lymphocytes; one doubling time (24 h)
Method: as §1, §2, §3, §4

K562 = experiment: Labelling of cells, fluorescence cancer/non cancer ratio: K562 vs Lymphocytes T; settings: fluorescence signal ratio; K562 (Blood, Chronic Myeloid Leukemia) vs Lymphocytes T; one doubling time (24 h)
Method: as §1, §2, §3, §4

OCI-Ly3 = experiment: Labelling of cells, fluorescence cancer/non cancer ratio: OCI-Ly3 vs Isolated primary B cells; settings: fluorescence signal ratio; OCI-Ly3 (Blood, Diffuse large B-cell lymphoma, 24 h) vs Isolated primary B cells
Method: as §1, §2, §3, §4

BL-2 = experiment: Labelling of cells, fluorescence cancer/non cancer ratio: BL-2 vs Isolated primary B cells; settings: fluorescence signal ratio; BL-2 (Blood, non-endemic Burkitt lymphoma, 24 h) vs Isolated primary B cells
Method: as §1, §2, §3, §4

A431 = experiment: Labelling of cells, fluorescence cancer/non cancer ratio: A431 vs Hacat; settings: fluorescence signal ratio; A431 (Skin, Epidermoid carcinoma) vs Hacat; one doubling time (30 h)
Method: as §1, §2, §3, §4

DOHH-2 = experiment: Labelling of cells, fluorescence cancer/non cancer ratio: DOHH-2 vs Isolated primary B cells; settings: fluorescence signal ratio; DOHH-2 (Blood, Diffuse large B-cell lymphoma germinal center B-cell type, 40-48 h) vs Isolated primary B cells
Method: as §1, §2, §3, §4

HT29 = experiment: Labelling of cells, fluorescence cancer/non cancer ratio: HT29 vs Colon epithelial cell; settings: fluorescence signal ratio; HT29 (colon, Colorectal adenocarcinoma) vs Colon epithelial cell; one doubling time (40 h)
Method: as §1, §2, §3, §4

## [N-]=[N+]=NC[C@@H](O)[C@H](O)[C@@H](O)C=O [Xylose-N3, 5-azido-5-deoxy-xylose]
AGS
  Cancer/Non Cancer Ratio: 2
Kasumi-1
  Cancer/Non Cancer Ratio: 2
A549
  Cancer/Non Cancer Ratio: 10
MDA MB175
  Cancer/Non Cancer Ratio: 3
THP1
  Cancer/Non Cancer Ratio: 25
MDA-MB-231
  Cancer/Non Cancer Ratio: 4
PANC
  Cancer/Non Cancer Ratio: 3
KCL22
  Cancer/Non Cancer Ratio: 7
K562
  Cancer/Non Cancer Ratio: 5
OCI-Ly3
  Cancer/Non Cancer Ratio: 9
BL-2
  Cancer/Non Cancer Ratio: 2
A431
  Cancer/Non Cancer Ratio: 12
DOHH-2
  Cancer/Non Cancer Ratio: 12
HT29
  Cancer/Non Cancer Ratio: 8
